Measurements reported in patent publication US20230158020A1, “Method for treating RNA viral infections, including COVID-19 (SARS-CoV-2)” (priority 2020, published 2023).
Where two headings read alike, the source gives them in different places.

Assays:
SARS-CoV-2 = type: in vivo
COVID-19 = conditions: patients with confirmed COVID-19; FVP orally 1600 mg twice a day on day 1, 600 mg twice a day days 2-14, plus interferon-α aerosol 5 million units twice a day; control lopinavir/ritanovir 400 mg/100 mg twice a day; cited from earlier work

## NC(=O)c1nc(F)c[nH]c1=O [FVP, Favipiravir]
SARS-CoV-2; patients with FVP dose <43 mg/kg on day 1
  virus elimination rate: 44%
SARS-CoV-2; patients with FVP dose ≥43 mg/kg on day 1
  virus elimination rate: 79%
COVID-19
  viral clearance: 4 days
